These results are taken from publication PMC4876372 (Scientific Reports, 2016).

The target of data set [1] is T1, His-tagged human recombinant DCTPP1 protein (Homo sapiens, UniProt Q9H773).
T1 construct: His; purchased ATGen
T1 sequence (Q9H773 1-170): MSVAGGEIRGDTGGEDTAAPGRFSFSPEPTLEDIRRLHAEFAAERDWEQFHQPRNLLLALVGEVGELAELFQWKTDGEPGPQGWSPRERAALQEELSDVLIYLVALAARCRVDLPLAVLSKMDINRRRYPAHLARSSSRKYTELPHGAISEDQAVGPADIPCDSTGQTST
Put plainly: DCTPP1 enzyme assay. Type of data set: biochemical. The settings on record: at 100 μM. How it is done: Likewise, the enzymatic activities of ITPA and DCTPP1 were measured using a PPiLight Inorganic Pyrophosphate Assay kit. For the ITPA enzyme assay, we used ITPA assay buffer (100 mM Tris-acetate, 50 mM Mg(OAc)2, 0.005% Tween-20, and 2 mM DTT, pH 7.5), His-tagged human recombinant ITPA protein (5 nM; ProSpec), and ITP (25 μM). For the DCTPP1 enzyme assay, we used DCTPP1 assay buffer (100 mM Tris-acetate, 100 mM NaCl, 10 mM Mg(OAc)2, 0.005% Tween-20, and 2 mM DTT, pH 7.5), His-tagged human recombinant DCTPP1 protein (50 nM; ATGen), and deoxycytidine triphosphate (dCTP; 50 μM).
To exclude false positive compounds that inhibit PPi detection, the effects of test compounds on 10 μM Na4P2O7-induced luciferase activity were examined.

Data set [2] has as its system HeLa cells. The experiment in a line: Cell death assay (WST-8) in HeLa cells. It is filed as cell-based, human. How it is done: (§1) Human cancer cell lines HeLa (cervical cancer), MIA PaCa-2 (pancreatic cancer), A431 (epidermoid carcinoma), and human embryonic kidney derived cell line HEK293T were cultured in Dulbecco’s Modified Eagle’s Medium (DMEM; Invitrogen) containing 10% fetal bovine serum (FBS), penicillin G (50 units/mL) and streptomycin (50 µg/mL). Human cancer cell lines Panc-1 (pancreatic cancer) and Jurkat (T cell lymphoma) were cultured in RPMI (Gibco) containing 10% FBS, penicillin G (50 units/mL) and streptomycin (50 µg/mL). Human osteosarcoma cell line MG-63, mouse embryonic fibroblast NIH3T3 cells and its transformant NIH3T3/KRAS cells1 were cultured in DMEM (Sigma-Aldrich) containing 10% calf serum, glutamine (0.3 g/L), penicillin G (50 units/mL), and streptomycin (50 µg/mL). All cell lines were incubated at 37 °C in a humidified atmosphere containing 5% CO2.
(§2) The cells were seeded in 96-well plates, cultured overnight, and treated with test compounds for the indicated time. Subsequently, cell viability was measured by the WST-8 assay, using Cell Count Reagent SF (Nacalai Tesque) according to the manufacturer ’s instructions, with the measurement of absorbance set at 450 nm on the ARVO SX 1420 Multilabel Counter (Wallac). […]
On the technique in general: Tetrazolium dyes change colour on reduction, which living cells bring about.

Data set [3] deals with T2, His-tagged human recombinant MTH1 protein (Homo sapiens, UniProt P36639).
T2 construct: His; purchased ProSpec
Put plainly: MTH1 enzyme assay (PPiLight pyrophosphate detection). The conditions noted are these: MTH1 2 nM. Type of data set: biochemical. The procedure:
An MTH1 enzyme assay was performed as described previously with minor modifications. Briefly, test compounds were dissolved in an assay buffer [100 mM Tris-acetate, 40 mM NaCl, 10 mM Mg(OAc)2, 0.005% Tween-20, and 2 mM dithiothreitol (DTT), pH 7.5] containing His-tagged human recombinant MTH1 protein (2 nM; ProSpec). […] Relative MTH1 activity was measured by monitoring the pyrophosphate (PPi) generated through MTH1-catalyzed nucleotide triphosphate hydrolysis. The luciferase-mediated luminescence signal was recorded for 30 min using a luminometer (Molecular Devices).

Data set [4] in a line: Cell death assay (WST-8) in HeLa cells. The settings on record: human, HeLa cells (cervical cancer); 72 h, WST-8; read-out: cytotoxicity IC50 against HeLa cells. It is filed as cell-based, human. The procedure:
as §1, §2

The test system of data set [5] is nuclear 53BP1 foci in HeLa cells. The experiment in a line: 53BP1 foci immunofluorescence (DNA damage). It is filed as cell-based, human. The conditions noted are these: 24 h, only at the higher concentrations (100-300 μM). The procedure:
For 53BP1, test compound–treated HeLa cells were fixed in 3% formalin in PBS containing 0.1% Triton X-100 for 15 min and permeabilized in 0.5% Triton X-100 for 5 min. After blocking with 10% FBS and 0.1% Triton X-100 in PBS for 1 h, cells were incubated sequentially with a primary antibody against 53BP1 (1:600, sc-22760; Santa Cruz Biotechnology) in blocking solution at 37 °C for 1 h and with Alexa Fluor 568-conjugated secondary antibody (1:400, Life Technologies) under the same condition.
After a quick rinse in PBS, DNA was counterstained with 0.5 µg/mL Hoechst 33342 (Sigma-Aldrich) in PBS at room temperature for 10 min. Images were analyzed on a fluorescence microscope (Delta Vision). […]

The target of a further data set is T3, porcine tubulin (Sus scrofa, UniProt P02550+P02554).
T3 construct: purchased Cytoskeleton
The experiment in a line: In vitro tubulin polymerization assay. Type of data set: biochemical. The settings on record: dose-dependent. The procedure: In vitro tubulin polymerization assay was performed using a tubulin polymerization assay kit (Cytoskeleton) according to the manufacturer’s instructions. Briefly, lyophilized porcine tubulin was solubilized to a final concentration of 2 mg/mL in reaction buffer containing 80 mM piperazine-N,N′-bis(2-ethanesulfonic acid) (PIPES; pH 6.9), 2 mM MgCl2, 0.5 mM ethylene glycol tetraacetic acid (EGTA), 1 mM guanosine-5′-triphosphate (GTP), 10 μM fluorescent reporter, and 20% glycerol, and kept at 4 °C. Compounds (100 × DMSO stock solutions) were added to prewarmed half-area 96-well black plates. Cold tubulin solution was added to the wells. The plate contents were mixed by shaking, and fluorescence (Ex 350 nm, Em 435 nm) was read every minute for 1 h using a fluorescence microplate reader (Molecular Devices).

Data set [6] concerns 8-oxo-dG levels in DNA of HeLa cells. Put plainly: 8-oxo-dG immunofluorescence. Type of data set: cell-based, human. The settings on record: 20 h, NPD compounds 100 μM, TH287 3 and 10 μM. How it is done: as §1, with “CO2. […]” for “CO2.”
The HeLa cells were seeded on glass coverslips in 12-well plates, cultured overnight, and treated with test compounds for the indicated time. For 8-oxo-dG, cells were fixed sequentially in 3.7% formalin for 10 min and methanol at -20 °C for 10 min, and then permeabilized in 0.5% Triton X-100 in PBS at room temperature for 5 min. After blocking with 0.5% BSA in PBS at room temperature for 30 min, cells were incubated sequentially with a primary antibody against 8-oxo-dG (5 µg/mL, MOG-020; Japan Institute for the Control of Aging) and with Alexa Fluor 488-conjugated secondary antibody (1:400, Life Technologies) under the same conditions. After a quick rinse in PBS, DNA was counterstained with 0.1 µg/mL 4′,6-diamidino-2-phenylindole (DAPI) in PBS at room temperature for 10 min. Images were analyzed with a fluorescence microscope (BX60, Olympus).

Data set [7] has as its system HeLa cells. Put plainly: Cell cycle analysis (propidium iodide flow cytometry). Type of data set: cell-based, human. The conditions noted are these: 24 h. The procedure: The HeLa cells were seeded in 12-well plates and treated with test compounds for the indicated time. Cells were harvested, washed with PBS, and incubated in propidium iodide (PI) solution containing 50 µg/mL propidium iodide, 0.1% sodium citrate, 0.2% Nonidet P-40, and 0.25 µg/mL RNase A (Nacalai Tesque) for 30 mi n in the dark.
Cellular DNA content was analyzed by fluorescence-activated cell sorting using a Cytomics FC500 (Beckman Coulter). […]
A general note: A flow cytometer gives signals particle by particle.

The test system of data set [8] is Bcl-2 phosphorylation in HeLa cells. Put plainly: Detection of phosphorylated Bcl-2 (western blot). Type of data set: cell-based, human. The conditions noted are these: 24 h, at the effective concentrations. The procedure:
Western blot analysis for detection of phosphorylated Bcl-2 was performed as described previously with several modifications. Briefly, HeLa cells were treated with test compounds for 24 h, then harvested and lysed by sonication in a radioimmunoprecipitation assay buffer (RIPA) buffer containing 25 mM 4-(2-hydroxyethyl)-1-piperazineethanesulfonic acid (HEPES; pH 7.8), 0.5 M NaCl, 5 mM ethylenediaminetetraacetic acid (EDTA), 1.5% Triton-X-100, 1.0% sodium deoxycholate, and 0.1% sodium dodecyl sulfate (SDS), supplemented with a protease inhibitor cocktail (Roche). Samples were subjected to SDS-PAGE and transferred to a PVDF membrane. The membrane was incubated with a primary antibody against Bcl-2 (1:500, #M0887; DAKO) and a horseradish peroxidase-labeled secondary antibody (1:2000, 170-6516; Bio-Rad) in sequence. Then, they were visualized with Fusion Solo S using the SuperSignal West Pico Chemiluminescence Substrate. Phosphorylated Bcl-2 was detected on the upper side of unphosphorylated Bcl-2 by the mobility shift. As a loading control, α-tubulin was detected in the same samples by using a primary antibody against α-tubulin (1:2000, T9026; Sigma-Aldrich).
For orientation: In western blotting, separated proteins are transferred to a membrane and probed.

Data set [9] relates to intracellular microtubule networks in HeLa cells. Put plainly: alpha-tubulin immunofluorescence (interphase microtubules). It is filed as cell-based, human. The settings on record: 6 h, at cytotoxic concentrations. The procedure:
For α-tubulin, immunofluorescence was performed as described previously with several modifications2. Briefly, test compound–treated HeLa cells were fixed in 3.7% formalin for 1 min and methanol at -20 °C for 5 min sequentially, and permeabilized in 0.5% Triton X-100 in PBS for 5 min. After blocking with 0.5% BSA in PBS at room temperature for 30 min, cells were incubated sequentially with a primary antibody against α-tubulin (1:200, T9026; Sigma-Aldrich) in the blocking solution at 37 °C for 1 h, and with Alexa Fluor 488-conjugated secondary antibody (1:400, Life Technologies) at 37 °C for 40 min. After a quick rinse in PBS, DNA was counterstained with 0.5 µg/mL Hoechst 33342 in PBS at room temperature for 10 min. Images were analyzed using a fluorescence microscope (Delta Vision). […]
2 Futamura, Y. et al. Morphobase, an encyclopedic cell morphology database, and […]

Data set [10] concerns other members of the Nudix protein family, nucleoside triphosphate pyrophosphatases. Further details: method as in PMID 24695224. The conditions noted are these: cited from earlier work.
The test system of data set [11] is 87 enzymes, GPCRs, kinases, ion channels, and transporters. Further details: method as in PMID 24695224. The settings on record: at 10 μM; with few exceptions; cited from earlier work.
Data set [12] concerns patient-derived malignant melanoma cells. Set-up: method as in PMID 24695224. The settings on record: cited from earlier work.
Setting [13] is: substrate 2-OH-dATP (8.3 μM), read-out: IC50 of MTH1 inhibitory activity, 2-OH-dATP.
Setting [14] is: substrate 8-oxo-dGTP (13.2 μM), read-out: IC50 of MTH1 inhibitory activity, 8-oxo-dGTP.

Molecules are shown by their SMILES. Like-named read-outs stand apart in the source and are kept apart here.

T3 sequence (P02550 whole entry): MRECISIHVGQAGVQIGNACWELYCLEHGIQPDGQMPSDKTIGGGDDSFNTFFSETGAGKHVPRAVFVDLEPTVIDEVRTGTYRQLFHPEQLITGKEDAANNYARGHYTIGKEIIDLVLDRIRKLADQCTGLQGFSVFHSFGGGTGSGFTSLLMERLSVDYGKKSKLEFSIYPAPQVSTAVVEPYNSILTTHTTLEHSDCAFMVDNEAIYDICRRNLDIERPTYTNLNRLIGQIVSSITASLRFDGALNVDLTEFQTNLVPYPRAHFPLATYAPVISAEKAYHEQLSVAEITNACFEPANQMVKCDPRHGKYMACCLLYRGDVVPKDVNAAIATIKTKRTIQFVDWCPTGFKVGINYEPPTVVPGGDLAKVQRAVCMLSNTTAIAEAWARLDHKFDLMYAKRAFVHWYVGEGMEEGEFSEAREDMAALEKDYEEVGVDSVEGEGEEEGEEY
T3 sequence (P02554 whole entry): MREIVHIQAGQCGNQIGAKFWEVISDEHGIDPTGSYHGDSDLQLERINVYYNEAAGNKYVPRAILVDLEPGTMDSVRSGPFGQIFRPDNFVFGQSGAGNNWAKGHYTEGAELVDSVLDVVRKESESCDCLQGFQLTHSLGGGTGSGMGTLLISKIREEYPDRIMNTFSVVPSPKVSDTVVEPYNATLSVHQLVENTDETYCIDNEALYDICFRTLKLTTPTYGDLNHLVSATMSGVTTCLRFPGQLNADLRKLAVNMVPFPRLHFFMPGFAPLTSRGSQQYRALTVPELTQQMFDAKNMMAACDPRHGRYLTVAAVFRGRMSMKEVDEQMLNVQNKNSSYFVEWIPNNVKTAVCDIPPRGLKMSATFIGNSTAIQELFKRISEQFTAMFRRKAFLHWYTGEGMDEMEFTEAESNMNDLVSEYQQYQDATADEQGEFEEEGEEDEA

As usually defined, the IC50 is the midpoint of a concentration-inhibition curve. As to `C[C@H](Oc1cc(-c2cnn(C3CCNCC3)c2)cnc1N)c1c(Cl)ccc(F)c1Cl` [(S)-crizotinib, reference compound], in data set [1], the “effect on enzymatic activity of DCTPP1” value is “slightly inhibited”. Moreover, the IC50 in the data set with HeLa cells [2] (72 h, WST-8, read-out: cytotoxicity IC50 against HeLa cells) was found to be 13 µM.

With `Cn1cnc2c(NCc3ccco3)ncnc21` [NPD8880], the IC50 in data set [3] (setting [13]) and in data set [3] (setting [14]) was greater than 1000 µM in each case. Besides, in [4], the IC50 at 72 h stood at 650 µM. Further, the “DNA damage (nuclear 53BP1 foci formation)” value in [5] is “induced DNA damage”.

For `CC(C)OCCCNc1ncnc2[nH]cnc12` [NPD15095], the IC50 was 6.7 µM in [3] (setting [13]) and 3.3 µM in [3] (setting [14]).

In the case of `COc1ccc2nc3c(c(C)nn3C)c(NCCOCCO)c2c1` [SCH51344, reference compound], the IC50 in data set [3] (setting [13]) stood at 0.75 ± 0.4 µM; in [3] (setting [14]), 0.32 ± 0.04 µM; in the data set with HeLa cells [2], 5.5 µM. For the same compound, in [1], the “effect on enzymatic activity of DCTPP1” value was “slightly inhibited”.

Regarding `CNc1cc(-c2cccc(Cl)c2Cl)nc(N)n1` [TH287, reference compound], the IC50 in [3] (setting [13]) was determined as 0.0036 ± 0.0017 µM; in data set [3] (setting [14]), 0.0022 ± 0.0003 µM. Also, the “effect on tubulin polymerization in vitro” value on porcine tubulin is “inhibited tubulin polymerization”. In data set [6], the “accumulation of 8-oxo-dG” value is “increased 8-oxo-dG levels”. For the same compound, the “population of HeLa cells in G2/M phase” value in the data set on HeLa cells [7] was “increased the population of HeLa cells in G2/M phase”. Also, the Bcl-2 phosphorylation entry in data set [8] is “induced Bcl-2 phosphorylation”. Besides, in data set [9], the “effect on intracellular microtubule networks” value is listed as “disrupted intracellular microtubule networks”. In addition, in data set [10], the “inhibition of other Nudix family members and nucleoside triphosphate pyrophosphatases” value is “did not inhibit”.

On to `Nc1nc(NC2CC2)cc(-c2cccc(Cl)c2Cl)n1` [TH588], for which the “effect on tubulin polymerization in vitro” value at porcine tubulin was “inhibited tubulin polymerization”. In addition, the “population of HeLa cells in G2/M phase” value in the data set with HeLa cells [7] is recorded as “increased the population of HeLa cells in G2/M phase”. Also, the Bcl-2 phosphorylation result in [8] is “induced Bcl-2 phosphorylation”. Moreover, in data set [9], the “effect on intracellular microtubule networks” value was “disrupted intracellular microtubule networks”. Besides, the “inhibition of other Nudix family members and nucleoside triphosphate pyrophosphatases” value in data set [10] is listed as “did not inhibit”. Further, the “effect against 87 enzymes, GPCRs, kinases, ion channels, and transporters” value in data set [11] is given as “little effect”. Besides, in data set [12], the “tumor growth in mouse xenograft model” value is reported as “suppressed tumor growth”.
